We go through eleven compounds from paper PMC6600388 (2019).

This assay deals with human red blood cells.
The mark [1] stands for this setting: read-out: RBC Lysis IC50, pH 7.4, pH 7.4.

Read-outs that look alike come from different tables or passages of the source. Non-standard residues stand in square brackets, D forms with d. Residues, ends and D or L forms follow the SMILES beside them. βAla = NCCC(=O)O

As a reminder, the IC50 is the concentration at which inhibition is half-maximal. Regarding `CC[C@H](C)[C@H](NC(=O)[C@H](CCC(=O)O)NC(=O)CNC(=O)[C@H](Cc1ccccc1)NC(=O)[C@H](CC(C)C)NC(=O)CNC(=O)[C@@H](N)CS)C(=O)N[C@@H](CCC(=O)O)C(=O)N[C@@H](CCC(=O)O)C(=O)N[C@@H](CC(C)C)C(=O)N[C@H](C(=O)N[C@@H](CCC(=O)O)C(=O)N[C@@H](CCC(=O)O)C(=O)NCC(=O)N[C@@H](CC(C)C)C(=O)N[C@@H](CCC(=O)O)C(=O)N[C@@H](CC(N)=O)C(=O)N[C@@H](CC(C)C)C(=O)N[C@H](C(=O)N[C@@H](CC(=O)O)C(=O)N[C@@H](Cc1c[nH]c2ccccc12)C(=O)N[C@@H](Cc1c[nH]c2ccccc12)C(=O)N[C@@H](Cc1ccc(O)cc1)C(=O)NCC(=O)N[C@@H](Cc1ccc(O)cc1)C(=O)NCC(=O)N[C@@H](Cc1c[nH]cn1)C(=O)N[C@@H](CCCCN)C(=O)N[C@@H](CCCCN)C(=O)N[C@@H](Cc1c[nH]cn1)C(=O)N[C@@H](Cc1c[nH]cn1)C(=O)N[C@@H](CCC(N)=O)C(=O)N[C@@H](Cc1c[nH]cn1)C(=O)N[C@@H](CCCNC(=N)N)C(N)=O)[C@@H](C)CC)[C@@H](C)CC` [Peptide 64] (H-CGLFGEIEELIEEGLENLIDWWYGYGHKKHHQHR-NH2), the IC50 is, setting by setting: (red cells of human, pH 5.5) 3.91 µM; (red cells of human, pH 7.4) more than 20 µM.
The like results for `CC[C@H](C)[C@H](NC(=O)[C@H](CC(C)C)NC(=O)[C@H](CCC(=O)O)NC(=O)[C@H](CCC(=O)O)NC(=O)[C@@H](NC(=O)[C@H](CCC(=O)O)NC(=O)[C@H](CCC(=O)O)NC(=O)[C@H](Cc1ccccc1)NC(=O)[C@H](CC(C)C)NC(=O)CNC(=O)[C@@H](N)CS)[C@@H](C)CC)C(=O)N[C@@H](CCC(=O)O)C(=O)N[C@@H](CCC(=O)O)C(=O)NCC(=O)N[C@@H](CC(C)C)C(=O)N[C@@H](CCCCN)C(=O)N[C@@H](CC(N)=O)C(=O)N[C@@H](CC(C)C)C(=O)N[C@H](C(=O)N[C@@H](CC(=O)O)C(=O)N[C@@H](Cc1c[nH]c2ccccc12)C(=O)N[C@@H](Cc1c[nH]c2ccccc12)C(=O)N[C@@H](Cc1ccc(O)cc1)C(=O)NCC(=O)N[C@@H](Cc1ccc(O)cc1)C(=O)NCC(=O)N[C@@H](Cc1c[nH]cn1)C(=O)N[C@@H](CCCCN)C(=O)N[C@@H](CCCCN)C(=O)N[C@@H](Cc1c[nH]cn1)C(=O)N[C@@H](Cc1c[nH]cn1)C(=O)N[C@@H](CCC(N)=O)C(=O)N[C@@H](Cc1c[nH]cn1)C(=O)N[C@@H](CCCNC(=N)N)C(N)=O)[C@@H](C)CC` [Peptide 70] (H-CGLFEEIEELIEEGLKNLIDWWYGYGHKKHHQHR-NH2) were, in that order, 2.28 µM and more than 20 µM.
The like results for `CC[C@H](C)[C@H](NC(=O)[C@H](C)NC(=O)[C@H](CCC(=O)O)NC(=O)[C@H](Cc1ccccc1)NC(=O)[C@H](CC(C)C)NC(=O)CNC(=O)[C@@H](N)CS)C(=O)N[C@@H](CCC(=O)O)C(=O)NCC(=O)N[C@@H](Cc1ccccc1)C(=O)N[C@H](C(=O)N[C@@H](CCC(=O)O)C(=O)N[C@@H](CC(N)=O)C(=O)NCC(=O)N[C@@H](Cc1c[nH]c2ccccc12)C(=O)N[C@@H](CCC(=O)O)C(=O)NCC(=O)N[C@@H](CCSC)C(=O)N[C@H](C(=O)N[C@@H](CC(=O)O)C(=O)NCC(=O)NCC(=O)NCC(=O)NCC(=O)N[C@@H](Cc1ccc(O)cc1)C(=O)NCC(=O)N[C@@H](CCCNC(=N)N)C(=O)N[C@@H](CCCCN)C(=O)N[C@@H](CCCCN)C(=O)N[C@@H](CCCNC(=N)N)C(=O)N[C@@H](CCCNC(=N)N)C(=O)N[C@@H](CCC(N)=O)C(=O)N[C@@H](CCCNC(=N)N)C(=O)N[C@@H](CCCNC(=N)N)C(N)=O)[C@@H](C)CC)[C@@H](C)CC` [Peptide 32b] (H-CGLFEAIEGFIENGWEGMIDGGGGYGRKKRRQRR-NH2) were, in that order, more than 10 µM and more than 10 µM.
In the case of “CGLFEAIEGFIENGWEGMIDGWYG(Peg11)YGRKKRRQRR [Peptide 36e]”, under setting [1], the IC50 was more than 100 µM.
For the compound `CC[C@H](C)[C@H](NC(=O)[C@H](CCC(=O)O)NC(=O)CNC(=O)[C@H](Cc1ccccc1)NC(=O)[C@H](CC(C)C)NC(=O)CNC(=O)[C@@H](N)CS)C(=O)N[C@@H](CCC(=O)O)C(=O)N[C@@H](CCC(=O)O)C(=O)N[C@@H](CC(C)C)C(=O)N[C@H](C(=O)N[C@@H](CCC(=O)O)C(=O)N[C@@H](CCC(=O)O)C(=O)NCC(=O)N[C@@H](CC(C)C)C(=O)N[C@@H](CCC(=O)O)C(=O)N[C@@H](CC(N)=O)C(=O)N[C@@H](CC(C)C)C(=O)N[C@H](C(=O)N[C@@H](CC(=O)O)C(=O)N[C@@H](Cc1c[nH]c2ccccc12)C(=O)N[C@@H](Cc1c[nH]c2ccccc12)C(=O)N[C@@H](Cc1ccc(O)cc1)C(=O)NCC(=O)N[C@@H](Cc1ccc(O)cc1)C(=O)NCC(=O)N[C@@H](CCCNC(=N)N)C(=O)N[C@@H](CCCCN)C(=O)N[C@@H](CCCCN)C(=O)N[C@@H](CCCNC(=N)N)C(=O)N[C@@H](CCCNC(=N)N)C(=O)N[C@@H](CCC(N)=O)C(=O)N[C@@H](CCCNC(=N)N)C(=O)N[C@@H](CCCNC(=N)N)C(N)=O)[C@@H](C)CC)[C@@H](C)CC` [Peptide 63] (H-CGLFGEIEELIEEGLENLIDWWYGYGRKKRRQRR-NH2), the IC50 is 3.6 µM (red cells of human, pH 5.5) and more than 20 µM (red cells of human, pH 7.4).
Consider “CGLFEAIEGFIENGWEGMIDGWYG(Peg 3)YGRKKRRQRR [Peptide 36c]”, for which the IC50 (read-out: RBC Lysis IC50, pH 5.5, pH 5.5) is 1.92 µM and the IC50 under setting [1] is more than 10 µM.
Consider `CC[C@H](C)[C@H](NC(=O)[C@H](Cc1ccccc1)NC(=O)[C@H](CCC(=O)O)NC(=O)[C@H](CCC(=O)O)NC(=O)[C@@H](NC(=O)[C@H](Cc1ccccc1)NC(=O)[C@H](CCC(=O)O)NC(=O)[C@H](Cc1ccccc1)NC(=O)CNC(=O)CCNC(=O)[C@@H](N)CS)[C@@H](C)CC)C(=O)N[C@@H](CCC(=O)O)C(=O)N[C@@H](CC(N)=O)C(=O)NCC(=O)N[C@@H](CC(C)C)C(=O)N[C@@H](CCCCN)C(=O)N[C@@H](CC(N)=O)C(=O)N[C@@H](CC(C)C)C(=O)N[C@H](C(=O)N[C@@H](CC(=O)O)C(=O)N[C@@H](Cc1c[nH]c2ccccc12)C(=O)N[C@@H](Cc1c[nH]c2ccccc12)C(=O)N[C@@H](Cc1ccc(O)cc1)C(=O)NCC(=O)N[C@@H](Cc1ccc(O)cc1)C(=O)NCC(=O)N[C@@H](CCCNC(=N)N)C(=O)N[C@@H](CCCCN)C(=O)N[C@@H](CCCCN)C(=O)N[C@@H](CCCNC(=N)N)C(=O)N[C@@H](CCCNC(=N)N)C(=O)N[C@@H](CCC(N)=O)C(=O)N[C@@H](CCCNC(=N)N)C(=O)N[C@@H](CCCNC(=N)N)C(N)=O)[C@@H](C)CC` [Peptide 60] (H-C[βAla]GFEFIEEFIENGLKNLIDWWYGYGRKKRRQRR-NH2), for which the IC50 is, setting by setting: (red cells of human, pH 5.5) 1.14 µM; (red cells of human, pH 7.4) 12.8 µM.
With `CC[C@H](C)[C@H](NC(=O)[C@H](C)NC(=O)[C@H](CCC(=O)O)NC(=O)[C@H](Cc1ccccc1)NC(=O)[C@H](CC(C)C)NC(=O)CNC(=O)[C@@H](N)CS)C(=O)N[C@@H](CCC(=O)O)C(=O)NCC(=O)N[C@@H](Cc1ccccc1)C(=O)N[C@H](C(=O)N[C@@H](CCC(=O)O)C(=O)N[C@@H](CC(N)=O)C(=O)NCC(=O)N[C@@H](Cc1c[nH]c2ccccc12)C(=O)N[C@@H](CCC(=O)O)C(=O)NCC(=O)N[C@@H](CC(C)C)C(=O)N[C@H](C(=O)N[C@@H](CC(=O)O)C(=O)NCC(=O)N[C@@H](Cc1c[nH]c2ccccc12)C(=O)N[C@@H](Cc1ccc(O)cc1)C(=O)NCC(=O)N[C@@H](Cc1ccc(O)cc1)C(=O)NCC(=O)N[C@@H](CCCNC(=N)N)C(=O)N[C@@H](CCCCN)C(=O)N[C@@H](CCCCN)C(=O)N[C@@H](CCCNC(=N)N)C(=O)N[C@@H](CCCNC(=N)N)C(=O)N[C@@H](CCC(N)=O)C(=O)N[C@@H](CCCNC(=N)N)C(=O)N[C@@H](CCCNC(=N)N)C(N)=O)[C@@H](C)CC)[C@@H](C)CC` [Peptide 28g], the IC50 stood at 0.71 µM (red cells of human, pH 5.5) and 2.9 µM (red cells of human, pH 7.4).
In the case of `N=C(N)NCCC[C@H](NC(=O)[C@H](CCCNC(=N)N)NC(=O)[C@H](CCC(N)=O)NC(=O)[C@H](CCCNC(=N)N)NC(=O)[C@H](CCCNC(=N)N)NC(=O)[C@H](CCCCN)NC(=O)[C@H](CCCCN)NC(=O)[C@H](CCCNC(=N)N)NC(=O)CNC(=O)[C@H](Cc1ccc(O)cc1)NC(=O)[C@@H](N)CS)C(N)=O` [Peptide 1, reference compound] (H-CYGRKKRRQRR-NH2), the IC50 is more than 20 µM (red cells of human, pH 5.5) and more than 20 µM (red cells of human, pH 7.4).
For `CC[C@H](C)[C@H](NC(=O)[C@H](CCC(=O)O)NC(=O)CNC(=O)[C@H](Cc1ccccc1)NC(=O)[C@H](CC(C)C)NC(=O)CNC(=O)[C@@H](N)CS)C(=O)N[C@@H](CCC(=O)O)C(=O)N[C@@H](CCC(=O)O)C(=O)N[C@@H](Cc1ccccc1)C(=O)N[C@H](C(=O)N[C@@H](CCC(=O)O)C(=O)N[C@@H](CCC(=O)O)C(=O)NCC(=O)N[C@@H](Cc1c[nH]c2ccccc12)C(=O)N[C@@H](CCC(=O)O)C(=O)N[C@@H](CC(N)=O)C(=O)N[C@@H](Cc1ccccc1)C(=O)N[C@H](C(=O)N[C@@H](CC(=O)O)C(=O)N[C@@H](Cc1c[nH]c2ccccc12)C(=O)N[C@@H](Cc1c[nH]c2ccccc12)C(=O)N[C@@H](Cc1ccc(O)cc1)C(=O)NCC(=O)N[C@@H](Cc1ccc(O)cc1)C(=O)NCC(=O)N[C@@H](CCCNC(=N)N)C(=O)N[C@@H](CCCCN)C(=O)N[C@@H](CCCCN)C(=O)N[C@@H](CCCNC(=N)N)C(=O)N[C@@H](CCCNC(=N)N)C(=O)N[C@@H](CCC(N)=O)C(=O)N[C@@H](CCCNC(=N)N)C(=O)N[C@@H](CCCNC(=N)N)C(N)=O)[C@@H](C)CC)[C@@H](C)CC` [Peptide 66] (H-CGLFGEIEEFIEEGWENFIDWWYGYGRKKRRQRR-NH2), the IC50 runs as follows: (red cells of human, pH 5.5) 4.08 µM; (red cells of human, pH 7.4) more than 20 µM.
The like results for `CC[C@H](C)[C@H](NC(=O)[C@H](CCC(=O)O)NC(=O)CNC(=O)[C@H](Cc1ccccc1)NC(=O)[C@H](CC(C)C)NC(=O)CNC(=O)[C@@H](N)CS)C(=O)N[C@@H](CCC(=O)O)C(=O)N[C@@H](CCC(=O)O)C(=O)N[C@@H](Cc1ccccc1)C(=O)N[C@H](C(=O)N[C@@H](CCC(=O)O)C(=O)N[C@@H](CCC(=O)O)C(=O)NCC(=O)N[C@@H](CC(C)C)C(=O)N[C@@H](CCC(=O)O)C(=O)N[C@@H](CC(N)=O)C(=O)N[C@@H](CC(C)C)C(=O)N[C@H](C(=O)N[C@@H](CC(=O)O)C(=O)N[C@@H](Cc1c[nH]c2ccccc12)C(=O)N[C@@H](Cc1c[nH]c2ccccc12)C(=O)N[C@@H](Cc1ccc(O)cc1)C(=O)NCC(=O)N[C@@H](Cc1ccc(O)cc1)C(=O)NCC(=O)N[C@@H](CCCNC(=N)N)C(=O)N[C@@H](CCCCN)C(=O)N[C@@H](CCCCN)C(=O)N[C@@H](CCCNC(=N)N)C(=O)N[C@@H](CCCNC(=N)N)C(=O)N[C@@H](CCC(N)=O)C(=O)N[C@@H](CCCNC(=N)N)C(=O)N[C@@H](CCCNC(=N)N)C(N)=O)[C@@H](C)CC)[C@@H](C)CC` [Peptide 65] (H-CGLFGEIEEFIEEGLENLIDWWYGYGRKKRRQRR-NH2) were, in that order, 3.15 µM and more than 20 µM.
